Six compounds from US20090047701A1, “METHOD FOR SCREENING ANTIFUNGAL AGENTS” (STICHTING VOOR DE TECHNISCHE, priority 2004, published 2009) can be followed below.

Format in all cases: cell-based, Aspergillus niger
The test system of assay [1] is agsA. Nature of the assay: Northern analysis of agsA expression after CFW-induced cell wall stress, rlmA deletion strain (ΔrlmA). To be noted: ΔrlmA germlings, 200 μg/ml CFW, RNA at 0, 15, 30, 45 and 60 minutes (FIG. 3). On the procedure:
(§1) Cell wall integrity response in the wild-type (N402) and the ΔrlmA strain. Northern analysis of the agsA, and 18S messenger levels. Strains were grown in shake flask until small germ tubes were formed. Subsequently CFW (+) or an equal volume of water (−) was added to the cultures. RNA was extracted at the timepoints indicated above the Northerns, t=time in minutes. The probes used; for agsA a ˜0.6 kb EcoRI agsA fragment was isolated from pGEMT-agsA (Damveld et al, unpublished vector); the 18S ribosomal probe was isolated as a 2 kb BglI fragment from pMN1 (Borsuk et al., 1982 Gene 17, 147-152.)
(§2) Chromosomal DNA of A. niger was isolated as described by Kolar (Kolar et al., 1988, Gene 62, 127-134). Alternatively, chromosomal DNA was isolated using the FastPrep FP120 (Bio101). First, A. niger spores were grown in Fast-prep tubes containing 1 ml CM and 0.3 gram acid washed glass beads. […] Sequencing was carried out with a Perkin Elmer ABI PRISM 310 sequencer using the ABI prism Big Dye Terminator Cycle Sequencing Ready Reaction Kit (Applied Biosystems). […]
(§3) To determine the role of A. niger RlmA in the activation of agsA in response to cell wall stress, the expression of agsA was analysed in both the wild-type strain (N402) and the rlmA deletion strain (ΔrlmA) after CFW treatment. […]

The subject of assay [2] is agsA. In words: Northern analysis of agsA expression after CFW-induced cell wall stress, wild-type strain (N402). To be noted: wild-type N402 germlings, 200 μg/ml CFW, RNA at 0, 15, 30, 45 and 60 minutes (FIG. 3). As to the method: as §1, §2, §3
In a further assay the test system is ΔrlmA strain. In words: microtiter plate based growth assay: sensitivity of the ΔrlmA strain versus wild-type (N402). Conditions: spores in Complete medium, 37° C., 96-well plates, various concentrations, ΔrlmA vs N402 (FIG. 4). As to the method:
Sensitivity of the ΔrlmA strain towards different compounds. Growth curves of wild-type (N402) and ΔrlmA strains. Spores were grown in Complete medium for 24 hrs at 37° C. in the presence of various concentrations of antifungals. Data are represented as the mean and standard error of the mean obtained from four replicates. The dotted line with open squares represents the growth curve of the rlmA deletion strain and the solid line with closed circles represent the parental (N402) strain.
Sensitivity towards various compounds was assayed in 96-well microtiter plates (Nunc, art. 164588) using a Perkin Elmer HTS-7000 Bioassay reader. A series of concentrations of stress-inducing compounds (CFW, Caspofungin, Hydrogen-peroxide, SDS) were prepared in 100 μl milliq in a 96-well plate, and 100 μl spore solution (˜2×10^4 spores) in 2× complete medium was added to 100 μl stress-inducing solution. The microtiter plates were incubated at 37° C. and the OD590 was measured every 2 hours.
The sensitivity of the wild-type and the ΔrlmA strain towards various compounds was also measured by determining fungal growth in a microtiter plate based growth assay.

Take `O=S(=O)(O)c1cc(Nc2nc(Nc3ccccc3)nc(N(CCO)CCO)n2)ccc1/C=C/c1ccc(Nc2nc(Nc3ccccc3)nc(N(CCO)CCO)n2)cc1S(=O)(=O)O` [CFW, Calcofluor White]: in the assay on agsA [1], the “agsA mRNA in the ΔrlmA strain after treatment with CFW” value is “no agsA mRNA could be detected”. Besides, the “expression level of the agsA gene after CFW addition” value in the assay on agsA [2] is “already induced 15 minutes after CFW addition”. Further, the “Sensitivity of the ΔrlmA strain towards the compound in comparison to the wild-type strain (fungal growth, OD590)” value in the assay with ΔrlmA strain was “hypersensitive phenotype”.

As for `CC[C@H](C)C[C@H](C)CCCCCCCCC(=O)N[C@H]1C[C@@H](O)[C@@H](NCCN)NC(=O)[C@@H]2[C@@H](O)CCN2C(=O)[C@H]([C@H](O)CCN)NC(=O)[C@H]([C@H](O)[C@@H](O)c2ccc(O)cc2)NC(=O)[C@@H]2C[C@@H](O)CN2C(=O)[C@H]([C@@H](C)O)NC1=O` [Caspofungin], the “Sensitivity of the ΔrlmA strain towards the compound in comparison to the wild-type strain (fungal growth, OD590)” value in the assay with ΔrlmA strain is listed as “slightly, but reproducible enhanced”.

As for `OO` [H2O2, Hydrogen-peroxide], the “Sensitivity of the ΔrlmA strain towards the compound in comparison to the wild-type strain (fungal growth, OD590)” value in the assay with ΔrlmA strain is “no hypersensitive phenotype”.

Take `CCCCCCCCCCCCOS(=O)(=O)[O-].[Na+]` [SDS]: the “Sensitivity of the ΔrlmA strain towards the compound in comparison to the wild-type strain (fungal growth, OD590)” value in the assay on ΔrlmA strain was “hypersensitive phenotype”.

With `CCCCNC(=O)n1c(NC(=O)OC)nc2ccccc21` [benomyl], the “Sensitivity of the ΔrlmA strain towards the compound in comparison to the wild-type strain (fungal growth, OD590)” value in the assay on ΔrlmA strain is on record as “slightly, but reproducible enhanced”.

For tunicamycin, the “Sensitivity of the ΔrlmA strain towards the compound in comparison to the wild-type strain (fungal growth, OD590)” value in the assay on ΔrlmA strain was “slightly, but reproducible enhanced”.
